Among the test systems are HCT-116 colon; M14 melanoma; MDA-MB-435; SF-539 CNS; SNB-75 CNS; SR leukemia; SW-620 colon; UACC-257 melanoma; UO-31 renal; MALME-3M melanoma.
What all share (assay): growth of human tumour cells (NCI), 48 h

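Where inhibition never reached the appropriate level, the endpoint shown equals the highest concentration tested. Otherwise, values were interpolated linearly from a five-concentration, 48-hour dose response in 96-well plates. Abbreviation: GI50, concentration required for 50% inhibition of growth. The concentration for full growth arrest is given as TGI.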

Turning to `CCCCCCn1c(SC)nc(COC(=O)NC)c1COC(=O)NC`, the TGI in the assay with HCT-116 colon stood at 31.7 µM; in the assay on M14 melanoma, 38.8 µM; with MDA-MB-435, 41.9 µM; in the assay on SF-539 CNS it was 32.4 µM; in the assay with SNB-75 CNS it was 27.8 µM; with SR leukemia it was 71.7 µM. Further, the figures for the TGI with SW-620 colon, in the assay with UACC-257 melanoma and in the assay with UO-31 renal were 64.4 µM, 37.8 µM and 31.3 µM, respectively.
On to `Cc1ccc(NC(=O)CC/C(CC(=O)C(C)(C)C)=N\NC(=O)C[n+]2ccccc2)cc1C`, for which the TGI in the assay with HCT-116 colon, in the assay on M14 melanoma, in the assay with MALME-3M melanoma, in the assay on SF-539 CNS, in the assay on SNB-75 CNS and in the assay with SR leukemia was more than 100 µM each time. In addition, the TGI with SW-620 colon, in the assay on UACC-257 melanoma and in the assay on UO-31 renal was more than 100 µM each time.
Take `Cc1ccc(S(=O)(=O)N2CCN(C=S)CC2)cc1`: the TGI with HCT-116 colon, in the assay on M14 melanoma, with MALME-3M melanoma, with SF-539 CNS, in the assay on SNB-75 CNS and with SR leukemia was more than 100 µM in each case. Also, the TGI in the assay with SW-620 colon, in the assay with UACC-257 melanoma and in the assay on UO-31 renal was more than 100 µM throughout.
With `O=C(/C=C/c1ccccc1O)c1ccc([N+](=O)[O-])cc1`, the TGI was 29 µM in the assay on HCT-116 colon; 52.2 µM in the assay with M14 melanoma; more than 100 µM in the assay on MALME-3M melanoma; 29.2 µM in the assay with SF-539 CNS; 31.6 µM in the assay on SNB-75 CNS; 63.6 µM in the assay on SR leukemia. Also, the TGI was 31.3 µM in the assay on SW-620 colon, more than 100 µM in the assay with UACC-257 melanoma and 33.2 µM in the assay on UO-31 renal.
Turning to `OCC[N+]12CCCN1CCC2`, the TGI in the assay with HCT-116 colon, in the assay on M14 melanoma, in the assay on MALME-3M melanoma, with SF-539 CNS, in the assay on SNB-75 CNS and in the assay on SR leukemia was more than 100 µM each time. Also, the TGI in the assay on SW-620 colon, in the assay with UACC-257 melanoma and in the assay with UO-31 renal was more than 100 µM throughout.
Regarding `COc1cc2oc(-c3ccccc3)cc(=O)c2c(O)c1C`, the TGI with HCT-116 colon, in the assay with M14 melanoma, in the assay on MALME-3M melanoma, in the assay on SF-539 CNS, in the assay with SNB-75 CNS and in the assay on SR leukemia was more than 100 µM each time. The TGI with SW-620 colon, in the assay with UACC-257 melanoma and in the assay on UO-31 renal was more than 100 µM in each case.
`O=C(O)c1ccc(C(O)(c2ccccc2)c2ccccc2)cc1`: the TGI with HCT-116 colon, in the assay with M14 melanoma, in the assay with MALME-3M melanoma, in the assay on MDA-MB-435, in the assay with SR leukemia and in the assay on UACC-257 melanoma was more than 100 µM each time. This compound also came in with a TGI with UO-31 renal of more than 100 µM.
In the case of `COc1ccc(C(=O)c2c3cc(OC)c(OC)c(OC)c3cc[n+]2C)cc1`, the TGI in the assay with HCT-116 colon was more than 100 µM; in the assay with M14 melanoma, more than 100 µM; with MALME-3M melanoma it was more than 100 µM; in the assay with SNB-75 CNS it was 95.7 µM; in the assay on SR leukemia, more than 100 µM; in the assay on SW-620 colon, more than 100 µM. The same compound gave a TGI with UO-31 renal of more than 100 µM.
With `O=c1c2ccccc2c(/C=N\NC2=NCCN2)c2oc3ccccc3n12`, the GI50 in the assay on HCT-116 colon is 19.1 µM; in the assay with M14 melanoma, 34.4 µM; in the assay on MDA-MB-435, 38 µM; in the assay with SF-539 CNS, 18.1 µM; in the assay on SNB-75 CNS, 19.4 µM; in the assay on SR leukemia it was 6.12 µM. Also, the values for the GI50 in the assay on SW-620 colon, in the assay on UACC-257 melanoma and in the assay on UO-31 renal were 22.1 µM, more than 100 µM and 18.8 µM, respectively. Besides, the TGI with HCT-116 colon was more than 100 µM; in the assay on M14 melanoma it was more than 100 µM; in the assay on MDA-MB-435 it was more than 100 µM; in the assay with SF-539 CNS it was 36.3 µM; in the assay on SNB-75 CNS, 42 µM; in the assay on SR leukemia, more than 100 µM. The TGI in the assay on SW-620 colon was 74 µM; in the assay on UACC-257 melanoma, more than 100 µM; with UO-31 renal, 70.9 µM.
Take `CCCCNS(=O)(=O)c1n[nH]c(=O)[nH]c1=O`: the TGI with HCT-116 colon, with M14 melanoma, in the assay with MALME-3M melanoma, in the assay with MDA-MB-435, in the assay on SF-539 CNS and in the assay on SNB-75 CNS was more than 100 µM throughout. In addition, the TGI with SR leukemia, in the assay with SW-620 colon and in the assay with UO-31 renal was more than 100 µM throughout.
As to `Oc1ccc2c3c1OC1c4[nH]ncc4C[C@H]4[C@@H](C2)N(CC2CC2)CC[C@]314` (stereo partly drawn), the TGI in the assay on HCT-116 colon, in the assay with M14 melanoma, in the assay with MALME-3M melanoma, with MDA-MB-435, in the assay with SNB-75 CNS and in the assay on SR leukemia was more than 100 µM in each case. For the same compound, the TGI in the assay with UACC-257 melanoma and in the assay on UO-31 renal was more than 100 µM in each case.
Take `O=C(O)c1cc(=O)cc(C(=O)O)o1`: the GI50 with HCT-116 colon, in the assay on MALME-3M melanoma, in the assay with MDA-MB-435, in the assay with SF-539 CNS, in the assay on SNB-75 CNS and with SR leukemia was more than 100 µM throughout. The GI50 in the assay with SW-620 colon, in the assay with UACC-257 melanoma and in the assay on UO-31 renal was more than 100 µM throughout. For the same compound, the TGI in the assay on HCT-116 colon, in the assay with MALME-3M melanoma, with MDA-MB-435, in the assay with SF-539 CNS, in the assay on SNB-75 CNS and in the assay on SR leukemia was more than 100 µM in each case. For the same compound, the TGI with SW-620 colon, in the assay on UACC-257 melanoma and in the assay with UO-31 renal was more than 100 µM throughout.
`O=C(Cc1nc2ccccc2o1)C(=O)Nc1cccc(Cl)c1`: the TGI in the assay on HCT-116 colon, in the assay on M14 melanoma, with MALME-3M melanoma, in the assay with SF-539 CNS, in the assay on SNB-75 CNS and with SR leukemia was more than 100 µM throughout. The TGI with SW-620 colon, in the assay with UACC-257 melanoma and in the assay on UO-31 renal was more than 100 µM in each case.
For the compound `CCn1c2ccccc2c(=O)c2c(OC)ccc(OC)c21`, the TGI in the assay on HCT-116 colon, in the assay on M14 melanoma, in the assay with MALME-3M melanoma, with SF-539 CNS, in the assay on SR leukemia and with SW-620 colon was more than 100 µM each time. Also, the values for the TGI in the assay on UACC-257 melanoma and with UO-31 renal were more than 100 µM and more than 89.9 µM, respectively.
